Data as given in the NIST ThermoML archive (doi:10.1007/s10765-019-2537-x).
Several values for one entry are separate records, joined by “and”; a condition that tells them apart may be missing. Equal entries are not always repeated. Numbers after ± are expanded uncertainties.

Settings: Liquid, transient hot wire

CCCCCCCCCCCCCCC [pentadecane]
Settings	thermal conductivity
436.95 K, 5250 kPa	0.111 ± 0.04 W/m/K
436.98 K, 10580 kPa	0.1145 ± 0.04 W/m/K
437.06 K, 1280 kPa	0.1105 ± 0.04 W/m/K
437.06 K, 15070 kPa	0.1143 ± 0.04 W/m/K
437.08 K, 15070 kPa	0.1135 ± 0.04 W/m/K
437.1 K, 5250 kPa	0.1106 ± 0.04 W/m/K
437.1 K, 15070 kPa	0.1133 ± 0.04 W/m/K
437.11 K, 1280 kPa	0.1079 ± 0.04 W/m/K
437.12 K, 10470 kPa	0.1112 ± 0.04 W/m/K
437.14 K, 5250 kPa	0.1103 ± 0.04 W/m/K
437.25 K, 1280 kPa	0.1089 ± 0.04 W/m/K
456.48 K, 20550 kPa	0.1176 ± 0.04 W/m/K
456.52 K, 20460 kPa	0.1176 ± 0.04 W/m/K
456.66 K, 20460 kPa	0.113 ± 0.04 W/m/K
456.86 K, 15300 kPa	0.1132 ± 0.04 W/m/K
456.9 K, 15300 kPa	0.1124 ± 0.04 W/m/K
456.94 K, 15300 kPa	0.1116 ± 0.04 W/m/K
457.02 K, 1540 kPa	0.1032 ± 0.04 W/m/K
457.03 K, 1550 kPa	0.1063 ± 0.04 W/m/K
457.03 K, 10370 kPa	0.1096 ± 0.04 W/m/K
457.04 K, 1560 kPa	0.1059 ± 0.04 W/m/K
457.18 K, 5400 kPa	0.1082 ± 0.04 W/m/K
457.32 K, 5440 kPa	0.1063 ± 0.04 W/m/K
457.33 K, 10250 kPa	0.1104 ± 0.04 W/m/K
457.37 K, 10270 kPa	0.1084 ± 0.04 W/m/K
457.4 K, 5440 kPa	0.1059 ± 0.04 W/m/K
476.68 K, 20310 kPa	0.114 ± 0.04 W/m/K
476.72 K, 15160 kPa	0.1061 ± 0.04 W/m/K
476.9 K, 20850 kPa	0.1106 ± 0.04 W/m/K
476.95 K, 15160 kPa	0.1094 ± 0.04 W/m/K
476.97 K, 10330 kPa	0.1092 ± 0.04 W/m/K
477 K, 15160 kPa	0.1082 ± 0.04 W/m/K
477.06 K, 20970 kPa	0.1128 ± 0.04 W/m/K
477.24 K, 5120 kPa	0.1033 ± 0.04 W/m/K
477.29 K, 1080 kPa	0.0998 ± 0.04 W/m/K
477.29 K, 10330 kPa	0.1023 ± 0.04 W/m/K
477.3 K, 5120 kPa	0.1024 ± 0.04 W/m/K
477.3 K, 10330 kPa	0.1044 ± 0.04 W/m/K
477.32 K, 5120 kPa	0.1031 ± 0.04 W/m/K
477.33 K, 1080 kPa	0.0988 ± 0.04 W/m/K
477.61 K, 1080 kPa	0.1038 ± 0.04 W/m/K
496.62 K, 20420 kPa	0.111 ± 0.04 W/m/K
496.9 K, 20420 kPa	0.1069 ± 0.04 W/m/K
496.94 K, 10500 kPa	0.102 ± 0.04 W/m/K
496.95 K, 5430 kPa	0.0983 ± 0.04 W/m/K
496.95 K, 20420 kPa	0.1039 ± 0.04 W/m/K
496.96 K, 15010 kPa	0.1033 ± 0.04 W/m/K
496.97 K, 15010 kPa	0.1021 ± 0.04 W/m/K and 0.105 ± 0.04 W/m/K
497 K, 10530 kPa	0.1008 ± 0.04 W/m/K
497.04 K, 10470 kPa	0.1024 ± 0.04 W/m/K
497.1 K, 5410 kPa	0.0981 ± 0.04 W/m/K
497.15 K, 5430 kPa	0.0965 ± 0.04 W/m/K
516.81 K, 15180 kPa	0.104 ± 0.04 W/m/K
516.84 K, 20110 kPa	0.0998 ± 0.04 W/m/K
516.89 K, 20110 kPa	0.1031 ± 0.04 W/m/K
517 K, 15180 kPa	0.0984 ± 0.04 W/m/K
517 K, 20100 kPa	0.1021 ± 0.04 W/m/K
517.03 K, 15180 kPa	0.099 ± 0.04 W/m/K
517.12 K, 5490 kPa	0.0948 ± 0.04 W/m/K
517.19 K, 5490 kPa	0.094 ± 0.04 W/m/K
517.2 K, 5490 kPa	0.0941 ± 0.04 W/m/K
536.59 K, 20650 kPa	0.1039 ± 0.04 W/m/K and 0.1025 ± 0.04 W/m/K
536.85 K, 20650 kPa	0.0995 ± 0.04 W/m/K
536.99 K, 15650 kPa	0.1001 ± 0.04 W/m/K
537.13 K, 15650 kPa	0.0975 ± 0.04 W/m/K
537.14 K, 10120 kPa	0.0972 ± 0.04 W/m/K
537.39 K, 5310 kPa	0.0872 ± 0.04 W/m/K
556.55 K, 5420 kPa	0.0851 ± 0.04 W/m/K
556.82 K, 15300 kPa	0.1002 ± 0.04 W/m/K
556.9 K, 20180 kPa	0.0999 ± 0.04 W/m/K
556.93 K, 10380 kPa	0.0967 ± 0.04 W/m/K
557 K, 20180 kPa	0.0986 ± 0.04 W/m/K
557.05 K, 10380 kPa	0.0943 ± 0.04 W/m/K
557.06 K, 20180 kPa	0.098 ± 0.04 W/m/K
557.12 K, 15300 kPa	0.0941 ± 0.04 W/m/K
557.14 K, 15300 kPa	0.0924 ± 0.04 W/m/K
576.55 K, 20450 kPa	0.0998 ± 0.04 W/m/K
576.95 K, 20450 kPa	0.0961 ± 0.04 W/m/K
577.01 K, 10240 kPa	0.0944 ± 0.04 W/m/K
577.06 K, 20450 kPa	0.0928 ± 0.04 W/m/K
577.08 K, 15190 kPa	0.0923 ± 0.04 W/m/K
577.1 K, 5140 kPa	0.0897 ± 0.04 W/m/K
577.12 K, 10300 kPa	0.0889 ± 0.04 W/m/K
577.12 K, 15190 kPa	0.0924 ± 0.04 W/m/K
577.15 K, 15190 kPa	0.09 ± 0.04 W/m/K
577.16 K, 10320 kPa	0.0907 ± 0.04 W/m/K
577.17 K, 5140 kPa	0.0888 ± 0.04 W/m/K
577.25 K, 5140 kPa	0.0876 ± 0.04 W/m/K
